Reference: patent publication US4605643A, “Ovine GRF” (The Salk Institute for Biological Studies, priority 1984, dated 1986)

Test system: rat pituitary cells
Test: in vitro release of growth hormone from cultured rat pituitary cells (ir GH by radioimmunoassay), side-by-side with hGRF(1-44)-NH2
Assay type: cell-based
Experimental: To determine the effectiveness of the peptide to promote the release of growth hormone, in vitro assays are carried out using synthetic hGRF(1-44)-NH2 in side-by-side comparison with equimolar concentrations of the extracted and purified oGRF(1-44) of Example II. hGRF thus serves as a GRF Reference Standard having a known effectiveness to promote the release of growth hormone from rat pituitary cells. Cultures are used which include cells of rat pituitary glands removed some four to five days previously. Both cultures of a defined standard medium and cultures which are considered optimal for the secretion of growth hormone are used for the comparative testing, in the general manner described in Brazeau, et al. Regulatory Peptides, 1, 255, 1981. Incubation with the substance to be tested is carried out for 3 to 4 hours, and aliquots of the culture medium are removed and processed to measure their contents in immunoreactive GH(ir GH) by a well-characterized radioimmunoassay.

[1] = equimolar ratios, incubation 3 to 4 hours, ir GH in culture medium by RIA
[2] = multiple doses factorial design experiments

CC[C@H](C)[C@H](NC(=O)[C@H](C)NC(=O)[C@H](CC(=O)O)NC(=O)[C@H](C)NC(=O)[C@@H](N)Cc1ccc(O)cc1)C(=O)N[C@@H](Cc1ccccc1)C(=O)N[C@H](C(=O)N[C@@H](CC(N)=O)C(=O)N[C@@H](CO)C(=O)N[C@@H](Cc1ccc(O)cc1)C(=O)N[C@@H](CCCNC(=N)N)C(=O)N[C@@H](CCCCN)C(=O)N[C@H](C(=O)N[C@@H](CC(C)C)C(=O)NCC(=O)N[C@@H](CCC(N)=O)C(=O)N[C@@H](CC(C)C)C(=O)N[C@@H](CO)C(=O)N[C@@H](C)C(=O)N[C@@H](CCCNC(=N)N)C(=O)N[C@@H](CCCCN)C(=O)N[C@@H](CC(C)C)C(=O)N[C@@H](CC(C)C)C(=O)N[C@@H](CCC(N)=O)C(=O)N[C@@H](CC(=O)O)C(=O)N[C@H](C(=O)N[C@@H](CCSC)C(=O)N[C@@H](CC(N)=O)C(=O)N[C@@H](CCCNC(=N)N)C(=O)N[C@@H](CCC(N)=O)C(=O)N[C@@H](CCC(N)=O)C(=O)NCC(=O)N[C@@H](CCC(=O)O)C(=O)N[C@@H](CCCNC(=N)N)C(=O)N[C@@H](CC(N)=O)C(=O)N[C@@H](CCC(N)=O)C(=O)N[C@@H](CCC(=O)O)C(=O)N[C@@H](CCC(N)=O)C(=O)NCC(=O)N[C@@H](C)C(=O)N[C@@H](CCCCN)C(=O)N[C@H](C(=O)N[C@@H](CCCNC(=N)N)C(=O)N[C@@H](CC(C)C)C(N)=O)C(C)C)[C@@H](C)CC)[C@@H](C)CC)[C@@H](C)O [oGRF(1-44)]
intrinsic biological activity (release of growth hormone) compared with synthetic hGRF(1-44)-NH2 [1]: full intrinsic biological activity of the synthetic peptide
potency (release of growth hormone) compared with synthetic hGRF(1-44)-NH2 [1]: close to the same potency
intrinsic activity compared with hGRF(1-44)-NH2 [2]: about the same intrinsic activity as hGRF(1-44)-NH2
specific activity relative to hGRF(1-44)-NH2 [2]: about 70 % of hGRF(1-44)-NH2
